Test results from PubChem BioAssay AID790 (SRMLSC, 2007).
The source made the active and inactive calls. No rule for the calls is given here.

Experiments:
[1] = growth inhibition of yeast vps1Δ mutant, dose response, S. cerevisiae, background strain comparison (AID 790); conditions: S. cerevisiae vps1Δ mutant growth inhibition; measured here: background strain growth inhibition
[2] = test system: S. cerevisiae vps1Δ mutant growth inhibition; assay: as above

Row | SMILES | IC50 [1] | IC50 [2]
1 | CCc1ccc(C(=O)/C=C/c2ccc([N+](=O)[O-])o2)cc1 | 20.7 µM | 2.13 µM
2 | Cn1c(=O)c2nc(NCc3ccccc3)cnc2n(C)c1=O | > 10 µM | > 10 µM (inactive)
3 | CCN1C(=O)c2ccc(C(=O)NCc3ccccc3)cc2C1=O | > 10 µM | > 10 µM (inactive)
4 | Cc1ccc(-c2csc3nnc(SCC(=O)Nc4cccc(C)n4)n23)cc1 | > 10 µM | > 10 µM (inactive)
5 | Fc1ccc(Cn2nnc(-c3ccc(CN4CCOCC4)cc3)n2)cc1 | > 10 µM | > 10 µM (inactive)
6 | CCC(C)(C)NC(=O)CN(C(=O)CCC(=O)Nc1ccccn1)c1ccc(F)c(Cl)c1 | > 10 µM | > 10 µM (inactive)
7 | CCOc1cccc(C(=O)Nc2cccnc2)c1 | > 10 µM | > 10 µM (inactive)
8 | CCCC(=O)Nc1ccc(Cl)c(NC(=O)c2cccnc2Cl)c1 | > 10 µM | > 10 µM (inactive)
9 | O=C(NCc1ccccc1)NS(=O)(=O)c1ccccc1Cl | > 10 µM | > 10 µM (inactive)
10 | Clc1ccc(-c2n[nH]c3c2CCC3)c(Cl)c1 | 0.518 µM | 0.219 µM
11 | CCc1cc2c(=O)c(Oc3ccccc3F)c(C)oc2c(CN(C)C)c1O | > 10 µM | > 10 µM (inactive)
12 | C=CCc1ccc(OCCCCN2CC(C)OC(C)C2)c(OC)c1 (configuration not stated) | > 10 µM | > 10 µM (inactive)
13 | N#CC1=C2SCC(O)(c3ccccc3)N2C(=O)CC1c1ccccc1 (configuration not stated) | > 10 µM | > 10 µM (inactive)
14 | Clc1ccc(-c2n[nH]c3c2CCC3)cc1Cl | 1.81 µM | 1.07 µM
15 | O=C(O)c1ccc(N2CCCCC2)cc1 | > 10 µM | > 10 µM (inactive)
16 | Cn1c(=O)cc(NCc2ccccc2)[nH]c1=O | > 10 µM | > 10 µM (inactive)
17 | Cc1ccnc(N2C(=O)c3cccc4c([N+](=O)[O-])ccc(c34)C2=O)c1 | 4.22 µM | 2.86 µM
18 | Cc1cccc2cc(C#N)c(NCCCn3ccnc3)nc12 | > 10 µM | > 10 µM (inactive)
19 | O=C(O)Cn1c(SCCOc2ccccc2F)nc2ccccc21 | > 10 µM | > 10 µM (inactive)
20 | COc1ccc(C2CC(=O)C3=C(C2)NC(C)=C(C(=O)Nc2ccccc2C)C3c2coc3ccc(C)cc3c2=O)cc1OC (configuration not stated) | > 10 µM | > 10 µM (inactive)
21 | Cc1ccc(S(=O)(=O)c2c(C)nn(C(C)(C)C)c2OC(=O)c2ccc(Br)o2)cc1 | > 10 µM | > 10 µM (inactive)

Row | SMILES | IC50 [1] | IC50 [2]
22 | Cc1cccc(OCC(=O)O/N=C(\N)Cc2ccc(Cl)cc2)c1 | 10.4 µM | > 10 µM (inactive)
23 | CC1CC(C)CN(CCOc2ccc(Cl)cc2Cl)C1 (configuration not stated) | > 10 µM | > 10 µM (inactive)
24 | O=C(NCC(c1cccnc1)N1CCN(c2ccccc2)CC1)c1ccc2c(c1)OCO2 (configuration not stated) | > 10 µM | > 10 µM (inactive)
25 | O=C(Nc1nnc(-c2ccc(Cl)cc2)o1)c1ccccc1Br | 13.1 µM | 2.37 µM
26 | CCOC(=O)c1cc2c(ccn2C)n1CC(=O)N1CCN(c2ccccc2OC)CC1 | > 10 µM | > 10 µM (inactive)
27 | CCN(CC)CCCN(Cc1cc2cc3c(cc2[nH]c1=O)OCCO3)C(=O)Nc1ccc(F)cc1 | > 10 µM | > 10 µM (inactive)
28 | CCOC(=O)NC(Nc1ccc(S(N)(=O)=O)cc1)(C(=O)OCC)C(F)(F)F (configuration not stated) | > 10 µM | > 10 µM (inactive)
29 | Cc1c(Cc2ccccc2)c(=O)oc2c(C)c(OCc3nn[nH]n3)ccc12 | > 10 µM | > 10 µM (inactive)
30 | Cc1cccnc1Nc1nc(-c2ccccn2)cs1 | > 10 µM | 4.17 µM
31 | CCCOc1ccccc1N/C(=N/c1nc(C)cc(C)n1)NC(=O)COc1ccc(OC)cc1 | > 10 µM | > 10 µM (inactive)
32 | CCc1cc(=O)oc2cc(C)c(CN3CCCC(C)C3)c(O)c12 (configuration not stated) | > 10 µM | > 10 µM (inactive)
33 | CCOC(=O)C1=C(CSc2nc(-c3ccccc3)ccc2C#N)OC(N)=C(C#N)C1c1cccnc1 (configuration not stated) | > 10 µM | > 10 µM (inactive)
34 | N=c1nc(N)nc2n1NC(c1ccc(F)cc1)=CS2 | > 10 µM | > 10 µM (inactive)
35 | Cc1ccc(C(=O)c2c(NC(=O)c3ccncc3)sc3c2CCCC3)cc1 | > 10 µM | > 10 µM (inactive)
36 | CCOC(=O)c1ccc(NC(=O)c2ccc(CN3CCOCC3)cc2)cc1 | > 10 µM | > 10 µM (inactive)
37 | CN1CCN(CCCNC(=O)Cn2nc(-c3ccccc3)ccc2=O)CC1 | > 10 µM | > 10 µM (inactive)
38 | Cc1c(Cl)c([N+](=O)[O-])nn1Cc1ccc(C(=O)N/N=C\c2cccc(Br)c2)o1 | > 10 µM | < 0.049 µM
39 | Cc1ccc(S(=O)(=O)N2CCN(C3CCN(Cc4ccccc4)CC3)CC2)cc1 | > 10 µM | > 10 µM (inactive)
40 | O=C(Nc1nnc(-c2ccc3c(c2)CCCC3)o1)c1ccc(Cl)cc1Cl | 3.46 µM | 1.18 µM
41 | Clc1ccc(Cn2nnc(-c3ccc(CN4CCOCC4)cc3)n2)cc1 | > 10 µM | > 10 µM (inactive)
